Kd data for 12 molecules are collected here from ChEMBL document CHEMBL3991601, “The target landscape of clinical kinase drugs” (Science, 2017).

What is called Kd is the equilibrium constant for the complex coming apart.

Experiment [1] deals with Mitotic checkpoint serine/threonine-protein kinase BUB1 (Homo sapiens, UniProt O43683).
The target of experiment [2] is Cyclin-dependent kinase 12 (Homo sapiens, UniProt Q9NYV4).
Experiment [3] deals with T1, ATP-dependent RNA helicase DDX1 (Homo sapiens, UniProt Q92499).
T1 sequence (Q92499 whole entry): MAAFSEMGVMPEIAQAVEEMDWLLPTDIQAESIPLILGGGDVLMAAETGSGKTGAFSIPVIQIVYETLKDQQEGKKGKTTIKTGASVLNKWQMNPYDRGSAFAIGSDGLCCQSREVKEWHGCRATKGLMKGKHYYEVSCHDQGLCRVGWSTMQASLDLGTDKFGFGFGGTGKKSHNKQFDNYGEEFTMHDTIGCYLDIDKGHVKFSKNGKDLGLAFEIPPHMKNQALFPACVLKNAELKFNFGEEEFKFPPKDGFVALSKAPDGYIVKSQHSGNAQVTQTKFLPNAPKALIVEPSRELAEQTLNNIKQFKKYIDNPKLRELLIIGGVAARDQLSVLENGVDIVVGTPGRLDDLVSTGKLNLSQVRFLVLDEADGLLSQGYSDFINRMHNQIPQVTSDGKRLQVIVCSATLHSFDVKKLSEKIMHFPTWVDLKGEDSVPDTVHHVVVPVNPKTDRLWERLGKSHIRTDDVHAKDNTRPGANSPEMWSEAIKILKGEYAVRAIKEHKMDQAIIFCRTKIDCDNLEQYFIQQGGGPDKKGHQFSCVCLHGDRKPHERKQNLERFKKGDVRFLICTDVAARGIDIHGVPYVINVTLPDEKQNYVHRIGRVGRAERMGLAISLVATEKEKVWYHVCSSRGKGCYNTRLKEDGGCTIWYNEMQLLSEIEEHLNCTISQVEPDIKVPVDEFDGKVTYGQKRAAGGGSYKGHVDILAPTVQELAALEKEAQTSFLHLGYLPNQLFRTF

Experiment [4] deals with T2, Serine/threonine-protein kinase ICK (Homo sapiens, UniProt Q9UPZ9).
T2 sequence (Q9UPZ9 whole entry): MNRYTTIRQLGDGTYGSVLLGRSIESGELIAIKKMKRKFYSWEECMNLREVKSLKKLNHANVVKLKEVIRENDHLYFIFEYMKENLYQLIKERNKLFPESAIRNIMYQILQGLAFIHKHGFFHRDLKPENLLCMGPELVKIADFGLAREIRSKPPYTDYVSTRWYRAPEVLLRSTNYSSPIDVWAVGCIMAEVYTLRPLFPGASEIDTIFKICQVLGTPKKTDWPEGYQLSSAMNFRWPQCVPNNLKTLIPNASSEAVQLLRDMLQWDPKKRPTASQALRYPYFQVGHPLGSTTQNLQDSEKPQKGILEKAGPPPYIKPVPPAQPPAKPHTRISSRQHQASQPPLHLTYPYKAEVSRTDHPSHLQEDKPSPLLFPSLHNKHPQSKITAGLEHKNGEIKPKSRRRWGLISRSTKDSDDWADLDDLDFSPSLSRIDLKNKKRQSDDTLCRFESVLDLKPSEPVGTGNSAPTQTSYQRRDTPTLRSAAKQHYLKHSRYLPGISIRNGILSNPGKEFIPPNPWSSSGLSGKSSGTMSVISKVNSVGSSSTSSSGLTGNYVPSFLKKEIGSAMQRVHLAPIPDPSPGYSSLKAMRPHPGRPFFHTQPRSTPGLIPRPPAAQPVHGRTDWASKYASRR

Experiment [5] concerns the target Tyrosine-protein kinase JAK1 (Homo sapiens, UniProt P23458).
Experiment [6] concerns the target cAMP-dependent protein kinase catalytic subunit beta (Homo sapiens, UniProt P22694).
The target of experiment [7] is Protein-tyrosine kinase 2-beta (Homo sapiens, UniProt Q14289).
Experiment [8] has as its target T3, Ras-related protein Rab-27A (Homo sapiens, UniProt P51159).
T3 sequence (P51159 whole entry): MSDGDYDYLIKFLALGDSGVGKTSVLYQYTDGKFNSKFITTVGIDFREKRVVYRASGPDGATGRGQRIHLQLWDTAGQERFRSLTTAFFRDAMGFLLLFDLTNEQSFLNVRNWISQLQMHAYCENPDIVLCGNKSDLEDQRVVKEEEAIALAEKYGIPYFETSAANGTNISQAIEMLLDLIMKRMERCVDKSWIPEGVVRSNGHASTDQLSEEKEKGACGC

Experiment [9] has as its target Non-receptor tyrosine-protein kinase TYK2 (Homo sapiens, UniProt P29597).
Experiment [10] concerns the target Casein kinase I isoform delta (Homo sapiens, UniProt P48730).
Experiment [11] addresses Tyrosine-protein kinase Fer (Homo sapiens, UniProt P16591).
For experiment [12], the target named is T4, Mitogen-activated protein kinase kinase kinase kinase 3 (Homo sapiens, UniProt Q8IVH8).
T4 sequence (Q8IVH8 whole entry): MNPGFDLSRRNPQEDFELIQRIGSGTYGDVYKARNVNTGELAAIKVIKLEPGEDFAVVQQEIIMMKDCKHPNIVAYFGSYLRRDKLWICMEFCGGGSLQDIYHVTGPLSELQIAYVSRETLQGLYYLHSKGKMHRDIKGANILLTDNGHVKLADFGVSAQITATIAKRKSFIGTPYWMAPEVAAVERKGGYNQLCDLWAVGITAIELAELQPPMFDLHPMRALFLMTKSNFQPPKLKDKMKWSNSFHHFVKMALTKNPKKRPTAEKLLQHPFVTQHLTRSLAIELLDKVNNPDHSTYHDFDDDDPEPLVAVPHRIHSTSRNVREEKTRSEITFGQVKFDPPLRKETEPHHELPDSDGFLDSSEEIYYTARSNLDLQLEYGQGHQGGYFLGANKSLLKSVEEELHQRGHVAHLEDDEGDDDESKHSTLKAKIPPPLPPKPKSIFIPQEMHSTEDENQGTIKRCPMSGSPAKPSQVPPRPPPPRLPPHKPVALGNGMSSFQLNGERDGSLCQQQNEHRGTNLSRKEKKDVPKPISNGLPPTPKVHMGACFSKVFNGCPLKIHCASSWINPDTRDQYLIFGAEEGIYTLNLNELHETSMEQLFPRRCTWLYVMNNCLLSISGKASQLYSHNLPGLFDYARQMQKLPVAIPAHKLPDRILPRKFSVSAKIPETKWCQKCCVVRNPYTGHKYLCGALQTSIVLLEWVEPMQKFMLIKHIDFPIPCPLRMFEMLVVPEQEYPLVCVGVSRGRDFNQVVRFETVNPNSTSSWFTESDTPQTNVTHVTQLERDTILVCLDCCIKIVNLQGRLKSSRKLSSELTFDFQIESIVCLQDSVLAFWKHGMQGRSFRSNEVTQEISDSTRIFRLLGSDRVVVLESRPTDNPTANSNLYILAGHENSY

The structures appear in SMILES notation. Calls of active or inactive are those of the source. Rule as the data show it, for most assays here: actives have a measured Kd and inactives only a lower limit. Bounds are passed on as bounds.
Also: in the data inactive means no Kd found up to 30 µM.

Sequence of Mitotic checkpoint serine/threonine-protein kinase BUB1 (O43683 whole entry): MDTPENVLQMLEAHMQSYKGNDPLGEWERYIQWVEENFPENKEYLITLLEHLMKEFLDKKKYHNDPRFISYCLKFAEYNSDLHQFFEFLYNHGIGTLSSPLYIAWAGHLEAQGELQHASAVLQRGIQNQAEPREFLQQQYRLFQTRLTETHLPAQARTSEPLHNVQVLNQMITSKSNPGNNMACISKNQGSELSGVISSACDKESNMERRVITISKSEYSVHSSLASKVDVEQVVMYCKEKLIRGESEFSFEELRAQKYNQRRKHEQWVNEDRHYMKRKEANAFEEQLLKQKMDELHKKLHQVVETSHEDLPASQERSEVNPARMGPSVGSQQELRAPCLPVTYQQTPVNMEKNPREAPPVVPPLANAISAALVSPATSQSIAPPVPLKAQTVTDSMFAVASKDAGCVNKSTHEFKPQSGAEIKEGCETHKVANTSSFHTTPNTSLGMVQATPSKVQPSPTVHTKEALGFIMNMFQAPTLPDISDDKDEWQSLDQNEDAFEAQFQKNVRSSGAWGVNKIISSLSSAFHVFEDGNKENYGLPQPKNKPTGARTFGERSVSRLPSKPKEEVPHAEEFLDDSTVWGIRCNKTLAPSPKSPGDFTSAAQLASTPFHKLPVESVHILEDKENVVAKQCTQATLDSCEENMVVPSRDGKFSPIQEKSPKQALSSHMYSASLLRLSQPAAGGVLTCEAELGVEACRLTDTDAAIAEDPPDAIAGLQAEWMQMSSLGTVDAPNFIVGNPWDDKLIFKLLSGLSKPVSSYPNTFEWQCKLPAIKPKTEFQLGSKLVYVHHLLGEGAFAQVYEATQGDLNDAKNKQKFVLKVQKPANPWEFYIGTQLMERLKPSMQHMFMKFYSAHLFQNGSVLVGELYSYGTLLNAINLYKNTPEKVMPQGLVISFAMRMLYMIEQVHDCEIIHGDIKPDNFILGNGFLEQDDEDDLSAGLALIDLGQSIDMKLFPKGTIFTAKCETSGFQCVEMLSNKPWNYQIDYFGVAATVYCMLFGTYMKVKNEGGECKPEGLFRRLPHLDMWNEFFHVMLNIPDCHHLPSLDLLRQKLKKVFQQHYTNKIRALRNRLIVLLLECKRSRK
Sequence of Non-receptor tyrosine-protein kinase TYK2 (P29597 whole entry, canonical isoform): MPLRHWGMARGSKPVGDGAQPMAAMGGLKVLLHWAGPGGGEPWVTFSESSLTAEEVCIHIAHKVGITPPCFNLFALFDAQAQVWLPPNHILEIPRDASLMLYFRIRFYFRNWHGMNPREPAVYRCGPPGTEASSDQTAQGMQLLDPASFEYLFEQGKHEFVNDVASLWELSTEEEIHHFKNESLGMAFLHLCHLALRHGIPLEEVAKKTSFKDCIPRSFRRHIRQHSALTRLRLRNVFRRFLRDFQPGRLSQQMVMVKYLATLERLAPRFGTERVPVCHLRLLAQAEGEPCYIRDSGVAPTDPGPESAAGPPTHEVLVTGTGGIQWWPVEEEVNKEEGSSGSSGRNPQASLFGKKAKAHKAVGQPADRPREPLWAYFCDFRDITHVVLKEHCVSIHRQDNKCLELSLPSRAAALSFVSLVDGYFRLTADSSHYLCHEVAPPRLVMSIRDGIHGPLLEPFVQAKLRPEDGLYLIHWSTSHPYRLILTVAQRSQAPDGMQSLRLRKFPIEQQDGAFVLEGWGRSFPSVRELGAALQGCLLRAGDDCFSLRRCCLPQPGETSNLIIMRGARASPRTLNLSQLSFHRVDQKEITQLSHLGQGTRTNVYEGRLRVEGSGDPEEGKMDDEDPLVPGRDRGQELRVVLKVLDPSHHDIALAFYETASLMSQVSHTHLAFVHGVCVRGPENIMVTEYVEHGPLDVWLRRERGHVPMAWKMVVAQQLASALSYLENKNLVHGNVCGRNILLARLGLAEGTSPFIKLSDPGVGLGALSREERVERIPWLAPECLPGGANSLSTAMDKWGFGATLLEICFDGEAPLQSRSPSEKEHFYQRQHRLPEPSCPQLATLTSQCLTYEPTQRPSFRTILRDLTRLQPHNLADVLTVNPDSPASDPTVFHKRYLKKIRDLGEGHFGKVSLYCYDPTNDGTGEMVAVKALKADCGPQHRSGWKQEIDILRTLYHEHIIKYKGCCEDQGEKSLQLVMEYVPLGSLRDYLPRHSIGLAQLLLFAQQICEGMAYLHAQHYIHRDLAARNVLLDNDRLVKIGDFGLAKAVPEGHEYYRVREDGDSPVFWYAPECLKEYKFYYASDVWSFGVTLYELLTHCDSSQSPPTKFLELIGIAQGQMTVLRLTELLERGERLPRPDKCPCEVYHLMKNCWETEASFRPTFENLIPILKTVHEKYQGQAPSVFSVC
Sequence of Tyrosine-protein kinase JAK1 (P23458 whole entry): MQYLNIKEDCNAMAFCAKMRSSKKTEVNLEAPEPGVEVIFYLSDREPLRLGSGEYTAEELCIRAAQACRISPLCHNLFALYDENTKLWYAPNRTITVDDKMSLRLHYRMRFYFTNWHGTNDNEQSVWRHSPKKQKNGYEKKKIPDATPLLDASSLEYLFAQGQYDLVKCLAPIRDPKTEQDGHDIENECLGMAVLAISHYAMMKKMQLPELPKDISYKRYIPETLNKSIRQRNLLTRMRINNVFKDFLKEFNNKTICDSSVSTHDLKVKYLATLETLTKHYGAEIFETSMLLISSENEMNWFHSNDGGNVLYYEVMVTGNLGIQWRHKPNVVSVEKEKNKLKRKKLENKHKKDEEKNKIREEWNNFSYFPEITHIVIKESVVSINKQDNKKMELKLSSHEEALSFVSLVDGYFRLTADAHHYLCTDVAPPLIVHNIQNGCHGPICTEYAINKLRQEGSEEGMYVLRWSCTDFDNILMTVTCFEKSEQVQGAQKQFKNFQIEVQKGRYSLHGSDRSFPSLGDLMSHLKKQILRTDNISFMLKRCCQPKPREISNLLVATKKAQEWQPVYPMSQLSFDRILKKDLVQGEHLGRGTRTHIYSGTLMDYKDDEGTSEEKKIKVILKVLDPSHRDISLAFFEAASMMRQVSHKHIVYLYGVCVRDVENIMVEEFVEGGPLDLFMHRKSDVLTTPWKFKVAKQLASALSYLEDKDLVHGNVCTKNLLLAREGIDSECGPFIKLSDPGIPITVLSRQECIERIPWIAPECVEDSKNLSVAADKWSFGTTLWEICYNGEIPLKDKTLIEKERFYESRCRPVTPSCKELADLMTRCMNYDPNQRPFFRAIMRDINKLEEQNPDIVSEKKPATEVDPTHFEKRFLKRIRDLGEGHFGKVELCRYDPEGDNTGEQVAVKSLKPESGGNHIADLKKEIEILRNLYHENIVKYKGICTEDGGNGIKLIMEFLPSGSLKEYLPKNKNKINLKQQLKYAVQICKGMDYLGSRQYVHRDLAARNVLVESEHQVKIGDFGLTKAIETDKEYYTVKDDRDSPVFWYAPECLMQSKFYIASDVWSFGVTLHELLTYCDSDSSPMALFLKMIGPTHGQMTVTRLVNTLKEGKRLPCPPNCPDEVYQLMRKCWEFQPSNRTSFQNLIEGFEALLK
Sequence of Tyrosine-protein kinase Fer (P16591 whole entry): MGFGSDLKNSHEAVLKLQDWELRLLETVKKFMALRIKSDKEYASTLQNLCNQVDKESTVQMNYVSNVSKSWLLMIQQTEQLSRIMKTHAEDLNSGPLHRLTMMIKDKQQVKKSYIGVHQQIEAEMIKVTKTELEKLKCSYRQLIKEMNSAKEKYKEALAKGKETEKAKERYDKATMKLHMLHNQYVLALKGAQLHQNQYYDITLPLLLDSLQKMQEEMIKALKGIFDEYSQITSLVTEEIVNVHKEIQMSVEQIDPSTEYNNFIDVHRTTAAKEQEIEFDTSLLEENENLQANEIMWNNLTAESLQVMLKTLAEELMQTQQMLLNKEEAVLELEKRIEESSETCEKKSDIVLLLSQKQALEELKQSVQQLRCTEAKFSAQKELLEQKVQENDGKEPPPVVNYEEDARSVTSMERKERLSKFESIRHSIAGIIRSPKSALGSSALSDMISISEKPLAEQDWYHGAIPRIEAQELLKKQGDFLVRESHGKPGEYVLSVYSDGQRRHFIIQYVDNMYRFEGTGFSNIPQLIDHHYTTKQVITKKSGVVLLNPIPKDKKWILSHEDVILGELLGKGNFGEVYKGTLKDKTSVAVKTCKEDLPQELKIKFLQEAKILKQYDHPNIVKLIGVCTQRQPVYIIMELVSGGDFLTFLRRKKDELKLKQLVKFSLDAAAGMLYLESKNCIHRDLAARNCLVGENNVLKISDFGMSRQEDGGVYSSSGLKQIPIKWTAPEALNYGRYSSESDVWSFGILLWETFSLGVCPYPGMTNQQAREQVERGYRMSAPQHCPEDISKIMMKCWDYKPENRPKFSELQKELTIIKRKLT
Sequence of Casein kinase I isoform delta (P48730 whole entry, canonical isoform): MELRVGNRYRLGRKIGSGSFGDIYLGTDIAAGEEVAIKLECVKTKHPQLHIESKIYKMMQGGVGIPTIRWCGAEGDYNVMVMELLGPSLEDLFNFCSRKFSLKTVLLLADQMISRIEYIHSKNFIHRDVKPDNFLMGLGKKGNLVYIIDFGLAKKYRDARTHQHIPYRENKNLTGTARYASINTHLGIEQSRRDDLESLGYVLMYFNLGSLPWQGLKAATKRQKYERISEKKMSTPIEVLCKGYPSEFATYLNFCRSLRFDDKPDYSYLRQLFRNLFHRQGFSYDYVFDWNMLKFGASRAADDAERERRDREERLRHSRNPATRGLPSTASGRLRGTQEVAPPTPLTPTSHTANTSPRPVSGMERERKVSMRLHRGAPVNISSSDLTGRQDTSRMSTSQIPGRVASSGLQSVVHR

As for `COc1cc2nccc(Oc3ccc(NC(=O)NC4CC4)c(Cl)c3)c2cc1C(N)=O` [LENVATINIB], the Kd in [1], in experiment [2], in experiment [3], in experiment [4], in experiment [5] and in [6] was > 30 µM (inactive) throughout. The Kd in experiment [7], in experiment [8] and in experiment [9] was > 30 µM (inactive) each time.
Regarding `CO[C@H]1C[C@@H]2CC[C@@H](C)[C@@](O)(O2)C(=O)C(=O)N2CCCC[C@H]2C(=O)O[C@H]([C@H](C)C[C@@H]2CC[C@@H](OCCO)[C@H](OC)C2)CC(=O)[C@H](C)/C=C(\C)[C@@H](O)[C@@H](OC)C(=O)[C@H](C)C[C@H](C)/C=C/C=C/C=C/1C` [EVEROLIMUS], the Kd in [1], in experiment [2], in [10], in [3], in experiment [11] and in experiment [5] was > 30 µM (inactive) each time. The Kd in experiment [12], in experiment [6], in experiment [7], in experiment [8] and in [9] was > 30 µM (inactive) throughout.
For the molecule `O=C(Nc1cccc(Cl)c1)Nc1ncc(CCNc2ncnc3ccsc23)s1` [SNS-314], the Kd in [2], in experiment [3], in experiment [4], in experiment [5], in experiment [12] and in [6] was > 30 µM (inactive) each time. The Kd in experiment [7] and in experiment [8] was > 30 µM (inactive) each time.
For `Cc1cn(-c2cc(NC(=O)c3ccc(C)c(Nc4nccc(-c5cccnc5)n4)c3)cc(C(F)(F)F)c2)cn1` [NILOTINIB], the Kd in experiment [1], in experiment [2], in [3] and in [8] was > 30 µM (inactive) each time.
Take `Nc1nc(N)c2nc(-c3cccc(O)c3)c(-c3cccc(O)c3)nc2n1` [TG100-115]: the Kd in [1], in experiment [2], in experiment [10], in experiment [3] and in [8] was > 30 µM (inactive) throughout.
Take `CN1CCN(c2ccc3nc(-c4c(N)c5c(F)cccc5[nH]c4=O)[nH]c3c2)CC1` [DOVITINIB]: the Kd in experiment [1], in experiment [2], in [3] and in [8] was > 30 µM (inactive) each time.
On to `Cc1cc(Nc2cc(N3CCN(C)CC3)nc(/C=C/c3ccccc3)n2)n[nH]1` [ENMD-2076], for which the Kd in experiment [1], in experiment [2], in [3], in experiment [11], in [4] and in [5] was > 30 µM (inactive) in each case. In addition, the Kd in experiment [12], in experiment [6], in [7] and in experiment [8] was > 30 µM (inactive) in each case.
Take `Cc1nc(N)sc1-c1ccnc(Nc2ccc(N3CCOCC3)cc2)n1` [CYC-116]: the Kd was 0.111 µM (active) in experiment [1]; > 30 µM (inactive) in experiment [2]; > 30 µM (inactive) in experiment [3]; 5.39 µM (active) in [5]; > 30 µM (inactive) in experiment [8].
Take `CN1CCC(COc2cnc(-c3cccc(Cn4nc(-c5cccc(C#N)c5)ccc4=O)c3)nc2)CC1` [TEPOTINIB]: the Kd in experiment [1], in experiment [2], in experiment [10], in experiment [3], in experiment [11] and in experiment [4] was > 30 µM (inactive) in each case. The Kd in [12], in [6], in experiment [7] and in experiment [8] was > 30 µM (inactive) each time.
Regarding `CCn1c(-c2nonc2N)nc2c(C#CC(C)(C)O)ncc(OC[C@H]3CCCNC3)c21` [GSK-690693], the Kd in experiment [1], in [2], in experiment [3] and in experiment [8] was > 30 µM (inactive) throughout.
For the molecule `Cn1ncc(Cl)c1-c1cc(C(=O)N[C@H](CN)Cc2cccc(F)c2)sc1Cl` [AFURESERTIB], the Kd in experiment [1], in experiment [2], in experiment [10], in experiment [3], in [11] and in experiment [5] was > 30 µM (inactive) in each case. In addition, the Kd is > 30 µM (inactive) in experiment [12], 0.211 µM (active) in [6], > 30 µM (inactive) in experiment [7] and > 30 µM (inactive) in experiment [9].
As to `C1=C/COCc2cc(ccc2OCCN2CCCC2)Nc2nccc(n2)-c2cccc(c2)COC/1` [PACRITINIB], the Kd in experiment [1] was > 30 µM (inactive); in experiment [2], > 30 µM (inactive); in experiment [10], > 30 µM (inactive); in experiment [3] it was > 30 µM (inactive); in [11], 3.66 µM (active); in [4] it was 0.27 µM (active). Also, the Kd in experiment [5], in experiment [12], in [6] and in experiment [7] was > 30 µM (inactive) each time.
